From ChEMBL document CHEMBL3792337, “Cardiac Glycosides from the Seeds of Thevetia peruviana” (J Nat Prod, 2016) come the findings set out here.

The subject of one experiment is MGC-803. Kind of experiment: Induction of apoptosis in human MGC803 cells after 24 hrs by annexin V-FITC/propidium iodide staining-based flow cytometry. Format: functional, cell-based. On the technique in general: Flow cytometry measures light scatter and fluorescence of single cells or particles in a stream.
Experiment [1] in a line: Cytotoxicity against human LO2 cells after 48 hrs by MTT assay. Format: cell-based. To be noted: L02, 48 h.
The nature of experiment [2]: Cytotoxicity against human P15 cells after 48 hrs by MTT assay. The class given is functional, cell-based. To be noted: P15, 48 h. On the technique in general: Tetrazolium assays rely on reduction of a dye to a coloured formazan, in cell work by metabolically active cells.
The test system of the next experiment is SW1990. Kind of experiment: Cytotoxicity against human SW1990 cells after 48 hrs by MTT assay. Conditions: SW1990, 48 h. The class given is functional, cell-based.
A short description of experiment [3]: Cytotoxicity against human MGC803 cells after 48 hrs by MTT assay. To be noted: MGC-803, 48 h. Format: functional, cell-based.

What is called IC50 is the point on the concentration scale where inhibition reaches its midpoint. Lower therefore signals greater potency.

For the molecule `CO[C@H]1[C@H](O)[C@H](O[C@H]2CC[C@@]3(C)[C@H](CC[C@@H]4[C@@H]3CC[C@]3(C)[C@@H](C5=CC(=O)OC5)CC[C@]43O)C2)O[C@@H](C)[C@@H]1O` [NERIIFOLIN], the Activity entry with MGC-803 was “Dose-dependent effect”. Also, the IC50 in experiment [1] was more than 10 µM; in experiment [2], 0.06 µM; in the experiment on SW1990, 0.03 µM; in experiment [3] it was 0.02 µM.
On the same counts, the results for `CO[C@H]1[C@H](O)[C@H](O[C@H]2CC[C@@]3(CO)[C@H](CC[C@@H]4[C@@H]3CC[C@]3(C)[C@@H](C5=CC(=O)OC5)CC[C@]43O)C2)O[C@@H](C)[C@@H]1O` are “Dose-dependent effect”, more than 10 µM, 0.08 µM, 0.02 µM and 0.04 µM.
In the case of `CO[C@@H]1[C@H](O)[C@@H](O[C@@H]2CC[C@]3(CO)[C@@H](CC[C@H]4[C@H]3CC[C@@]3(C)[C@H](C5=CC(=O)OC5)CC[C@@]43O)C2)O[C@H](C)[C@H]1O[C@@H]1O[C@H](CO)[C@@H](O)[C@H](O)[C@H]1O`, the IC50 in experiment [1] was more than 10 µM; in experiment [2] it was 4.91 µM; in the experiment on SW1990 it was 2.14 µM; in experiment [3], 5.75 µM.
`CO[C@H]1[C@H](O)[C@H](O[C@H]2CC[C@H]3[C@H](CC[C@@H]4[C@@H]3CC[C@]3(C)[C@@H](C5=CC(=O)OC5)CC[C@]43O)C2)O[C@@H](C)[C@@H]1O`: the Activity entry with MGC-803 is “Dose-dependent effect”. Besides, the IC50 is more than 10 µM in experiment [1], 0.21 µM in experiment [2], 0.53 µM in the experiment on SW1990 and 0.57 µM in experiment [3].
On to `CO[C@H]1[C@H](O)[C@H](O[C@H]2CC[C@H]3[C@H](CC[C@@H]4[C@@H]3CC[C@]3(C)[C@@H](C5=CC(=O)OC5)CC[C@]43O)C2)O[C@@H](C)[C@@H]1O[C@H]1O[C@@H](CO)[C@H](O)[C@@H](O)[C@@H]1O`, for which the half-inhibitory concentration (IC50) in experiment [1] was more than 10 µM; in experiment [2] it was 3.35 µM; in the experiment on SW1990, 8.1 µM; in experiment [3], more than 10 µM.
Take `CO[C@H]1[C@H](O)[C@H](O[C@H]2CC[C@@]3(C(=O)O)[C@H](CC[C@@H]4[C@@H]3CC[C@]3(C)[C@@H](C5=CC(=O)OC5)CC[C@]43O)C2)O[C@@H](C)[C@@H]1O`: the IC50 was more than 10 µM in experiment [1], more than 10 µM in experiment [2], more than 10 µM in the experiment with SW1990 and 3.93 µM in experiment [3].
Turning to `CO[C@@H]1[C@@H](O)[C@@H](O[C@@H]2CC[C@]3(OO)[C@@H](CC[C@H]4[C@H]3CC[C@@]3(C)[C@H](C5=CC(=O)OC5)CC[C@@]43O)C2)O[C@H](C)[C@H]1O[C@@H]1O[C@H](CO)[C@@H](O)[C@H](O)[C@H]1O`, the IC50 in experiment [1] was more than 10 µM; in experiment [2] it was 7.29 µM; in the experiment on SW1990, more than 10 µM; in experiment [3] it was more than 10 µM.
As to `CO[C@H]1[C@H](O)[C@H](O[C@H]2CC[C@@]3(C)[C@@H](CC[C@@H]4[C@@H]3CC[C@]3(C)[C@@H](C5=CC(=O)OC5)CC[C@]43O)C2)O[C@@H](C)[C@@H]1O` [THEVEFOLIN], in the experiment with MGC-803, the Activity entry was “Dose-dependent effect”. Further, the 50% inhibitory concentration (IC50) was more than 10 µM in experiment [1], 0.01 µM in experiment [2], 0.03 µM with SW1990 and 0.37 µM in experiment [3].
Turning to `CO[C@H]1[C@H](OC(C)=O)[C@H](O[C@@H]2CC[C@]3(C=O)[C@@H](CC[C@H]4[C@H]3CC[C@@]3(C)[C@H](C5=CC(=O)OC5)CC[C@@]43O)C2)O[C@@H](C)[C@@H]1O[C@H]1O[C@@H](CO[C@@H]2O[C@H](CO)[C@@H](O)[C@H](O)[C@H]2O)[C@H](O)[C@@H](O)[C@@H]1O`, the IC50 in experiment [1] was more than 10 µM; in experiment [2], more than 10 µM; with SW1990, more than 10 µM; in experiment [3], 9.53 µM.
For the molecule `CO[C@H]1[C@@H](O)[C@H](O[C@H]2CC[C@@]3(C)[C@H](CC[C@@H]4[C@@H]3CC[C@]3(C)[C@@H](C5=CC(=O)OC5)CC[C@]43O)C2)O[C@@H](C)[C@@H]1O[C@H]1O[C@@H](CO[C@@H]2O[C@H](CO)[C@@H](O)[C@H](O)[C@H]2O)[C@H](O)[C@@H](O)[C@@H]1O`, the IC50 in experiment [1] is more than 10 µM; in experiment [2], 6.02 µM; in the experiment with SW1990 it was 7.28 µM; in experiment [3], 1.93 µM.
